Assay results from ChEMBL document CHEMBL3046808, “Novel 2-(E)-substituted benzylidene-6-(N-substituted aminomethyl)cyclohexanones and cyclohexanols as analgesic and anti-inflammatory agents” (2013).

What was measured:
Format in all cases: functional
Rattus norvegicus = assay: Anti-inflammatory activity in Wistar Rattus norvegicus (rat) assessed as inhibition of carrageenan-induced paw edema at 200 mg/kg, po administered 1 hr prior to carrageenan-challenge measured after 3 hr relative to untreated control
Mus musculus [1] = assay: Anti-inflammatory activity in Kunming Mus musculus (mouse) assessed as inhibition of xylene-induced ear swelling at 200 mg/kg, po administered 1 hr prior to xylene challenge measured after 30 min relative to untreated control
Mus musculus [2] = assay: Analgesic activity in Kunming Mus musculus (mouse) assessed as increase in pain threshold at 200 mg/kg, po after 1 hr by hot plate method (reference value: 4.2%)
Mus musculus [3] = assay: Analgesic activity in Kunming Mus musculus (mouse) assessed as inhibition of acetic acid-induced writhing at 200 mg/kg, po administered 1 hr prior to acetic acid challenge measured for 15 min relative to untreated control

Row | SMILES | inhibition in vivo at 200 mg/kg (Rattus norvegicus) [%] | inhibition in vivo at 200 mg/kg (Mus musculus [1]) [%] | Activity (Mus musculus [2]) [%] | inhibition in vivo at 200 mg/kg (Mus musculus [3]) [%]
1 | Cc1cccc(N(C)CC2CCC/C(=C\c3ccc(S(C)(=O)=O)cc3)C2=O)c1 (configuration not stated) | 36.2 | 36.7 | 109.98 | 72.8
2 | Cc1ccc(NCC2CCC/C(=C\c3ccccc3)C2=O)cc1 (configuration not stated) | 72.3 | 56.4 | 166.19 | 82.8
3 | CN(CC1CCC/C(=C\c2ccccc2)C1=O)c1ccccc1 (configuration not stated) | 76.6 | 49.7 | 109.59 | 69.7
4 | Cc1ccc(N(C)CC2CCC/C(=C\c3ccccc3)C2=O)cc1 (configuration not stated) | 25.5 | 18.2 | 146.12 | 81
5 | Cc1cccc(N(C)CC2CCC/C(=C\c3ccccc3)C2=O)c1 (configuration not stated) | 46.8 | 44.9 | 108.45 | 76.7
6 | Cc1ccc(/C=C2\CCCC(CN(C)c3ccccc3)C2=O)cc1 (configuration not stated) | 44.7 | 39.5 | 79.04 | 68.2
7 | Cc1ccc(/C=C2\CCCC(CN(C)c3ccc(C)cc3)C2=O)cc1 (configuration not stated) | 38.3 | 27.6 | 71.6 | 76.5
8 | Cc1ccc(/C=C2\CCCC(CN(C)c3cccc(C)c3)C2=O)cc1 (configuration not stated) | 36.2 | 35.4 | 75.5 | 75.8
9 | CN(CC1CCC/C(=C\c2ccc(S(C)(=O)=O)cc2)C1=O)c1ccccc1 (configuration not stated) | 51.1 | 46.9 | 142.7 | 81
10 | Cc1ccc(N(C)CC2CCC/C(=C\c3ccc(S(C)(=O)=O)cc3)C2=O)cc1 (configuration not stated) | 31.9 | 27 | 155.12 | 84.5
11 | Cc1ccc(N(C)CC2CCC/C(=C\c3ccccc3)C2(O)c2ccccc2)cc1 (racemic) | 59.6 | 66.7 | 70.08 | 64.2
12 | Cc1cccc(N(C)CC2CCC/C(=C\c3ccccc3)C2(O)c2ccccc2)c1 (racemic) | 36.2 | 23.1 | 83.22 | 70.6
13 | COc1cccc(C2(O)/C(=C/c3ccccc3)CCCC2CN(C)c2ccccc2)c1 (racemic) | 38.3 | 34.7 | 162.71 | 82.2
14 | COc1cccc(C2(O)/C(=C/c3ccccc3)CCCC2CN(C)c2ccc(C)cc2)c1 (racemic) | 57.5 | 41.5 | 110.54 | 77.8
15 | COc1cccc(C2(O)/C(=C/c3ccccc3)CCCC2CN(C)c2cccc(C)c2)c1 (racemic) | 44.7 | 36 | 116.52 | 79.9
16 | COc1ccc(C2(O)/C(=C/c3ccccc3)CCCC2CN(C)c2ccccc2)cc1 (racemic) | 38.3 | 26.5 | 121.45 | 75.7
17 | COc1ccc(C2(O)/C(=C/c3ccccc3)CCCC2CN(C)c2ccc(C)cc2)cc1 (racemic) | 21.3 | 26.5 | 117.46 | 78.7
18 | COc1cccc(C2(C)/C(=C/c3ccc(C)cc3)CCCC2CN(C)c2ccccc2)c1 (racemic) | 25.5 | 18 | 153.01 | 80.9
19 | COc1cccc(C2(O)/C(=C/c3ccc(C)cc3)CCCC2CN(C)c2ccc(C)cc2)c1 (racemic) | 21.3 | 22.9 | 125.34 | 81.6
20 | COc1ccc(C2(O)/C(=C/c3ccc(C)cc3)CCCC2CN(C)c2ccccc2)cc1 (racemic) | 17 | 16.3 | 106.84 | 72.1
21 | COc1ccc(C2(O)/C(=C/c3ccc(C)cc3)CCCC2CN(C)c2ccc(C)cc2)cc1 (racemic) | 29.8 | 29.9 | 93.41 | 62.2
22 | COc1ccc(C2(O)/C(=C/c3ccc(C)cc3)CCCC2CN(C)c2cccc(C)c2)cc1 (racemic) | 29.8 | 24.5 | 93.52 | 74.2
23 | CC(C)Cc1ccc(C(C)C(=O)O)cc1 (configuration not stated) [IBUPROFEN] | 53.2 | 40.1 | 158.56 | 84.1
